Measurements from ChEMBL document CHEMBL3217564, “The design and synthesis of 5- and 6-isoxazolylbenzimidazoles as selective inhibitors of the BET bromodomains” (Medchemcomm, 2013).

Columns and labels:
[1] = target: T1, Bromodomain-containing protein 4 (Homo sapiens, UniProt O60885); test: Inhibition of BRD4 bromodomain-1 (unknown origin) by AlphaScreen assay
[2] = Inhibition of CBP (unknown origin) by AlphaScreen assay; design: species or system Homo sapiens
[3] = target: T2, ATPase family AAA domain-containing protein 2 (Homo sapiens) (UniProt Q6PL18); test: Binding affinity to ATAD2 bromodomain (unknown origin) assessed as change in melting temperature at 10 uM by differential scanning fluorimetric analysis
T2 sequence (whole entry): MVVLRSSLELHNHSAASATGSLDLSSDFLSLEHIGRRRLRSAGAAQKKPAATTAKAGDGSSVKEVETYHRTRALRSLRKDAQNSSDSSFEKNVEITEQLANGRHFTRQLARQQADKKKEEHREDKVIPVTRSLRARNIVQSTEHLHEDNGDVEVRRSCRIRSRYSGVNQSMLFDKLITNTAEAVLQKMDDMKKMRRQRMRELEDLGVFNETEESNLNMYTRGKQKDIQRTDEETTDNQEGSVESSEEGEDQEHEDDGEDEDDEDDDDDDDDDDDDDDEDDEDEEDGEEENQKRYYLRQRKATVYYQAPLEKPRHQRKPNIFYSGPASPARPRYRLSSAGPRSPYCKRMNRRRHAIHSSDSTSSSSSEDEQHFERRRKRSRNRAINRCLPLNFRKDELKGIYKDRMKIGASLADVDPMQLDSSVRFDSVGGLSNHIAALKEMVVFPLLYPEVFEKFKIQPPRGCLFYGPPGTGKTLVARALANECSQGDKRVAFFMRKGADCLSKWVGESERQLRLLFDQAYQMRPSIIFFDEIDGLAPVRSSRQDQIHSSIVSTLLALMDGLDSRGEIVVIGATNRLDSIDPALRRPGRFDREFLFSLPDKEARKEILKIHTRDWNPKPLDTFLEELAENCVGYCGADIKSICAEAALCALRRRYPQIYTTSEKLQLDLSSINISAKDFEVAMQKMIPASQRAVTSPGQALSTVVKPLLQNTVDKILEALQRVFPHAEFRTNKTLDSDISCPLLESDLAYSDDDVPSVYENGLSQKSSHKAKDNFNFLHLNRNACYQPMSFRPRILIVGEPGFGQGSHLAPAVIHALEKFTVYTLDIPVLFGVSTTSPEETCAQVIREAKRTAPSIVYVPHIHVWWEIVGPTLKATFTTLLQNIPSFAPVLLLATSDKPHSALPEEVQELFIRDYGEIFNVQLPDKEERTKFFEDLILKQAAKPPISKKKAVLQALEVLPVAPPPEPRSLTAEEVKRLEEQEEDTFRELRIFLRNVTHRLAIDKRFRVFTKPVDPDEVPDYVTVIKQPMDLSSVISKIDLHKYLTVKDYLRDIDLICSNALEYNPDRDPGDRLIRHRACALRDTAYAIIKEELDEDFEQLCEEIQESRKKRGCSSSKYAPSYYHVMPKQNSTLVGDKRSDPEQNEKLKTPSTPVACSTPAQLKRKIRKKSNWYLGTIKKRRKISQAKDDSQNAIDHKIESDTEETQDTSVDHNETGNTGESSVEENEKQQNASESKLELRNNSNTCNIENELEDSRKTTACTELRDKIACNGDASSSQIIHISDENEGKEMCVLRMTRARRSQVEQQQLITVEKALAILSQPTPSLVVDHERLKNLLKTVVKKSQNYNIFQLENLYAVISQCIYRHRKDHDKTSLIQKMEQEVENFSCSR

[4] = target: Histone acetyltransferase KAT2B (Homo sapiens) (UniProt Q92831); test: Binding affinity to PCAF bromodomain (unknown origin) assessed as change in melting temperature at 10 uM by differential scanning fluorimetric analysis
Histone acetyltransferase KAT2B (Homo sapiens), sequence (Q92831 whole entry, looked up): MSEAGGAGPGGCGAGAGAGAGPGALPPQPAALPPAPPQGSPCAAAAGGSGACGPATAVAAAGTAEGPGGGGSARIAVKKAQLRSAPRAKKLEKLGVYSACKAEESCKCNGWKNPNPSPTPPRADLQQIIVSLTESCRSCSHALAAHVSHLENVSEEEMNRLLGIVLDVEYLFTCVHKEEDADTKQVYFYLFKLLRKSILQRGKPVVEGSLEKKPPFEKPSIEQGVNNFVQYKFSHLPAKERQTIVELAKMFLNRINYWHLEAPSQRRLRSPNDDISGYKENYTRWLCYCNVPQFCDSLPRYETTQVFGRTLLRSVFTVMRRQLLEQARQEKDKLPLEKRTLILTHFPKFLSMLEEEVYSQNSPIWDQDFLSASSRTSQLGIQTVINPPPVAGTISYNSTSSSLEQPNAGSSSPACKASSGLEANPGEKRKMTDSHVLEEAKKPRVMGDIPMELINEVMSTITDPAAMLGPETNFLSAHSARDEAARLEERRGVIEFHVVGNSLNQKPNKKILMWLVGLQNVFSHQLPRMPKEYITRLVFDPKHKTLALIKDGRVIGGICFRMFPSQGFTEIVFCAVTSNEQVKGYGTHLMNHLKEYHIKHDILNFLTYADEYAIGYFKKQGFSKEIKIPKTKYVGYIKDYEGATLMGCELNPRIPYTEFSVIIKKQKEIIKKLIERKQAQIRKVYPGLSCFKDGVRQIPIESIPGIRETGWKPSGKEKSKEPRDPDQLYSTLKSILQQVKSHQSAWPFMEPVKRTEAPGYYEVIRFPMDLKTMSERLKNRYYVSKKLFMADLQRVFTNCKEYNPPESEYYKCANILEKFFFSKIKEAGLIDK

[5] = species on record: Homo sapiens; test: Selectivity ratio of IC50 for BRD4 bromodomain-1 (unknown origin) to IC50 for CBP (unknown origin)
[6] = target: PH-interacting protein (Homo sapiens) (UniProt Q8WWQ0); test: Binding affinity to PHIP bromodomain-2 (unknown origin) assessed as change in melting temperature at 10 uM by differential scanning fluorimetric analysis
[7] = species on record: Homo sapiens; test: Binding affinity to CBP (unknown origin) assessed as change in melting temperature at 10 uM by differential scanning fluorimetric analysis
[8] = target: T3, Transcription intermediary factor 1-alpha (Homo sapiens) (UniProt O15164); test: Binding affinity to TIF1alpha bromodomain (unknown origin) assessed as change in melting temperature at 10 uM by differential scanning fluorimetric analysis
T3 sequence (whole entry): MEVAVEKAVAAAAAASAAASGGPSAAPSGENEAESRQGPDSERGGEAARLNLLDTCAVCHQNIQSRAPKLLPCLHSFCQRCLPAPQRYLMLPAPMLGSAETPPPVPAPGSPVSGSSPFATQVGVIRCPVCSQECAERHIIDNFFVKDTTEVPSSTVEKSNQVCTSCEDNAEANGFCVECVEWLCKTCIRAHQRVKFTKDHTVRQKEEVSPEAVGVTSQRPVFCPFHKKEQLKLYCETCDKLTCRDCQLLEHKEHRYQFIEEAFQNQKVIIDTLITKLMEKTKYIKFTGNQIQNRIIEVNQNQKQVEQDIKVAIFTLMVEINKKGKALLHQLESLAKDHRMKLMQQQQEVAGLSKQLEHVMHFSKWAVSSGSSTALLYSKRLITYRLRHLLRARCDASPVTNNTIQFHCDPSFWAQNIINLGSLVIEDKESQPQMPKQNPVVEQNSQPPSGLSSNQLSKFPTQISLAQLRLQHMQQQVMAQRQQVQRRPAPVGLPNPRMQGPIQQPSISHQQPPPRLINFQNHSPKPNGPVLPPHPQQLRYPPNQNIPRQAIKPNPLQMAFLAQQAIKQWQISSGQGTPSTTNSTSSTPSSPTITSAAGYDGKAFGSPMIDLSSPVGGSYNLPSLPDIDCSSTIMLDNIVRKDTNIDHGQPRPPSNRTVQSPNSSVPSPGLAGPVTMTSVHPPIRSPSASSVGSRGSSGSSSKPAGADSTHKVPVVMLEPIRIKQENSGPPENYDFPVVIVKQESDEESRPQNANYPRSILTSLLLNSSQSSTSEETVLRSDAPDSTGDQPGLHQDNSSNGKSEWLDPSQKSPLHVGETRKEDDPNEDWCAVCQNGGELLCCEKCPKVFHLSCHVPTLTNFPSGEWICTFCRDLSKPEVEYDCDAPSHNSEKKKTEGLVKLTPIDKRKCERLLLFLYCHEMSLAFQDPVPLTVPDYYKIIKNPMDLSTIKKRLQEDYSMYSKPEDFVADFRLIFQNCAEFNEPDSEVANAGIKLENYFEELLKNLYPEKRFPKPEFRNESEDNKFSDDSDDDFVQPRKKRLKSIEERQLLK

[9] = target: Protein polybromo-1 (Homo sapiens) (UniProt Q86U86); test: Binding affinity to PB1-5 bromodomain (unknown origin) assessed as change in melting temperature at 10 uM by differential scanning fluorimetric analysis
Protein polybromo-1 (Homo sapiens), sequence (Q86U86 whole entry): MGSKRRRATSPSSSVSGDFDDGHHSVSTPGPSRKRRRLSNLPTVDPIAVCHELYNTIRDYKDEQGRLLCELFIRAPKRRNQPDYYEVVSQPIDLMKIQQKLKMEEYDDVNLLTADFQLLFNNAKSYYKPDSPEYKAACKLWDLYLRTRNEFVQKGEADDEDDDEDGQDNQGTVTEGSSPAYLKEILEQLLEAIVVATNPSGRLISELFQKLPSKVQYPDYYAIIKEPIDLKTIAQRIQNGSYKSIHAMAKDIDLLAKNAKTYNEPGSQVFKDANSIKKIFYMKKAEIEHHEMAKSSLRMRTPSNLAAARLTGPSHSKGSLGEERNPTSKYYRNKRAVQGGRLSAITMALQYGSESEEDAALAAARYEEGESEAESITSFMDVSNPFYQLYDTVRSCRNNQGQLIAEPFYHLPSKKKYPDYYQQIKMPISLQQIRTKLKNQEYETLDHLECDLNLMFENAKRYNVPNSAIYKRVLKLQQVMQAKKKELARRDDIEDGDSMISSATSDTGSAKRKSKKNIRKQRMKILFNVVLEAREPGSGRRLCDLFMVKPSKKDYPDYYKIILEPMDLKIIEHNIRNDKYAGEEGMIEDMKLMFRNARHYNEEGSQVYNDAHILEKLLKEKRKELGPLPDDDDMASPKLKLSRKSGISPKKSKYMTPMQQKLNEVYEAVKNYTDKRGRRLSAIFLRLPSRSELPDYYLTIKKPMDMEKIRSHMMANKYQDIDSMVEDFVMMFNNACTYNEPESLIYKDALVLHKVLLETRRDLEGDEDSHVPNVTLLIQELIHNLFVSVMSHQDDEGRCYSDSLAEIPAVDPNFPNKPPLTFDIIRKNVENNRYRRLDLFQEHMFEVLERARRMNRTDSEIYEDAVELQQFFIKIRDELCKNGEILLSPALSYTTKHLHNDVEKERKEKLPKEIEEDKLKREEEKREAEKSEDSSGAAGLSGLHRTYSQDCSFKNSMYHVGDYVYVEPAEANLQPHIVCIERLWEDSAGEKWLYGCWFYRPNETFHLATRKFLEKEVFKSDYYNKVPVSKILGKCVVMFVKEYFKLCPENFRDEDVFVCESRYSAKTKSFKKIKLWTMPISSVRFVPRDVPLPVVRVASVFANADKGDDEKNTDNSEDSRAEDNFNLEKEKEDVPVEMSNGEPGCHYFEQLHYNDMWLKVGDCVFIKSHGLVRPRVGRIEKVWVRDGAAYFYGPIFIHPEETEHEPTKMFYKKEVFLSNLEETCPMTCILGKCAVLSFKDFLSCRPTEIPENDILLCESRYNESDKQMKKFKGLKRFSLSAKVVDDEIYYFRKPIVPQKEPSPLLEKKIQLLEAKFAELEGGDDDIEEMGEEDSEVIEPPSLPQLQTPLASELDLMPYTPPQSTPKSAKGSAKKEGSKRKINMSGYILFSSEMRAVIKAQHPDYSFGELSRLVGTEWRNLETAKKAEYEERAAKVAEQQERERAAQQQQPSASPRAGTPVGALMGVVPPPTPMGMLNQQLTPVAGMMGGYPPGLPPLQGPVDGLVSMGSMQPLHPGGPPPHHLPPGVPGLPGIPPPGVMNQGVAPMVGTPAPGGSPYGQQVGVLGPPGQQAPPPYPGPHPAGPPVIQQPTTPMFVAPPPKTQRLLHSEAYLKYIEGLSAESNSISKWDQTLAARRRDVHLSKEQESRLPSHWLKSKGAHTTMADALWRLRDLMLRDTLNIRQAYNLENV

[10] = target: T1, Bromodomain-containing protein 4; test: Binding affinity to BRD4 bromodomain-2 (unknown origin) assessed as change in melting temperature at 10 uM by differential scanning fluorimetric analysis
[11] = target: Transcription initiation factor TFIID subunit 1 (Homo sapiens) (UniProt P21675); test: Binding affinity to TAF1 bromodomain-2 (unknown origin) assessed as change in melting temperature at 10 uM by differential scanning fluorimetric analysis
Transcription initiation factor TFIID subunit 1 (Homo sapiens), sequence (P21675 whole entry): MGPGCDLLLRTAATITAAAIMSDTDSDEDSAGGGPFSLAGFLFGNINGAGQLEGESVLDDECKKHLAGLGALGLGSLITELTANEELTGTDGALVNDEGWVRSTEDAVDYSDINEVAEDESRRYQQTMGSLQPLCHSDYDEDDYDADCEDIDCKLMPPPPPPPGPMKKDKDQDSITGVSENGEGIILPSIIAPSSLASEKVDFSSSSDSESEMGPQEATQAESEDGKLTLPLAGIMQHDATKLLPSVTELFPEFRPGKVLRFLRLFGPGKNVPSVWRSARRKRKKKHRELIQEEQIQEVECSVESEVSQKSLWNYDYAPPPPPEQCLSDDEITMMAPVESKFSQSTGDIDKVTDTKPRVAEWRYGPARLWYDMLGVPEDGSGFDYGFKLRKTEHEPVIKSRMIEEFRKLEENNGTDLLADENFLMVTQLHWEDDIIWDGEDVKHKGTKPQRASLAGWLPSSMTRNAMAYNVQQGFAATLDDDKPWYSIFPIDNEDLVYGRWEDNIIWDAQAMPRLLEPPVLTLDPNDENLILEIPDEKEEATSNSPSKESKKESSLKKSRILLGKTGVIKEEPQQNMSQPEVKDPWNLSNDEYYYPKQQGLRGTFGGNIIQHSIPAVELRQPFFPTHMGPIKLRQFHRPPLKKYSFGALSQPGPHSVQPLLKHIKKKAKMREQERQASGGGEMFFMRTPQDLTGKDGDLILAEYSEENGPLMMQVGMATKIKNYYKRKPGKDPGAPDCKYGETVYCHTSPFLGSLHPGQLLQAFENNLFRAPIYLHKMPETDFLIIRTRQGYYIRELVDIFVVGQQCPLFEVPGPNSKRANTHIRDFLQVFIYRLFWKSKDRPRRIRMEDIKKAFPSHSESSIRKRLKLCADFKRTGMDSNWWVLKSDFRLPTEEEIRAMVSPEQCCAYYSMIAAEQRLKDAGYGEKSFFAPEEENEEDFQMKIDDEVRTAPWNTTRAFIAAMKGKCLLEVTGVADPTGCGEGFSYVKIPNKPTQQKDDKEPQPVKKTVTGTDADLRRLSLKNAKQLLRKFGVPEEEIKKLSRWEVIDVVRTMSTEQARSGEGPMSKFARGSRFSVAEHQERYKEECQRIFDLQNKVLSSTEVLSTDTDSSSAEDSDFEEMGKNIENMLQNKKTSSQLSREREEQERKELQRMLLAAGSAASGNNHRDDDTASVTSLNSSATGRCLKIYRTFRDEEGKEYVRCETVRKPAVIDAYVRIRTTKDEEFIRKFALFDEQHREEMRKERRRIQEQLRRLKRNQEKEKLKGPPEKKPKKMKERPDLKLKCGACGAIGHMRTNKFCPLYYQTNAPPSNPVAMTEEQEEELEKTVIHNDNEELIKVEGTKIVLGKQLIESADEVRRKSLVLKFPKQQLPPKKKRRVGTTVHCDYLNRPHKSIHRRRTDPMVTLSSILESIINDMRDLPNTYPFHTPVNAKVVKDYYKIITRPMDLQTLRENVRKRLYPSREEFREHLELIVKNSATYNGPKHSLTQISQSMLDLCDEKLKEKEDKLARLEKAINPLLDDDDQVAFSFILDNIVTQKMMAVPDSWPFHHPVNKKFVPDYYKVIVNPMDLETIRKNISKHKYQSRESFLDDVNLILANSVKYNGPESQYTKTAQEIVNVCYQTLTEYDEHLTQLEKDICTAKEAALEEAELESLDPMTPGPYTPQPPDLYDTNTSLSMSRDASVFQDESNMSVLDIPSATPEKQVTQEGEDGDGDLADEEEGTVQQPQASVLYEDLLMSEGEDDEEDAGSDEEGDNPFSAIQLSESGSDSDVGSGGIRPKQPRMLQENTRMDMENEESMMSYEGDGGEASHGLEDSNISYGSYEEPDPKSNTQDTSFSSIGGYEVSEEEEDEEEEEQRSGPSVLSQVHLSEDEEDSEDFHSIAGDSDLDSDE

[12] = target: T4, Bromodomain-containing protein 9 (Homo sapiens) (UniProt Q9H8M2); test: Binding affinity to BRD9 bromodomain (unknown origin) assessed as change in melting temperature at 10 uM by differential scanning fluorimetric analysis
T4 sequence (whole entry): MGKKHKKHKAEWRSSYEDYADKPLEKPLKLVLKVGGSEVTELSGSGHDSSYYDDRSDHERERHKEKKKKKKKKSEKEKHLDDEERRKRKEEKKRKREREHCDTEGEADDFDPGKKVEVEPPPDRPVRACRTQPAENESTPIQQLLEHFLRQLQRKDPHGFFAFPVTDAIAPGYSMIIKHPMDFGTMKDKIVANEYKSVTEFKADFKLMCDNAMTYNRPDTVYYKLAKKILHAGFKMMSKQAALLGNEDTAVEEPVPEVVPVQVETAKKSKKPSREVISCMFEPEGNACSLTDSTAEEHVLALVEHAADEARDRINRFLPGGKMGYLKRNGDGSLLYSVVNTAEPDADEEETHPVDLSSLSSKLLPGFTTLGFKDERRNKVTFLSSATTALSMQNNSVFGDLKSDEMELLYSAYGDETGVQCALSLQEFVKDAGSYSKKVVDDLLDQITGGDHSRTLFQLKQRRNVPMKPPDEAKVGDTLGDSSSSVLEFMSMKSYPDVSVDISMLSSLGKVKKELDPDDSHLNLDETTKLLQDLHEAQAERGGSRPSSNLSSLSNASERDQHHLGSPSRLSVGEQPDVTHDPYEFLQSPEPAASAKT

SMILES	IC50 ([1]; read-out: pIC50 (converted)) [nM]	pIC50 [2]	also measured
Cc1noc(C)c1-c1ccc2c(c1)C(OCCCN1CCCC1)CC2 (racemic)	6310	–	–
Cc1noc(C)c1-c1ccc2ncn(Cc3ccccc3Cl)c2c1	794	< 5	–
Cc1noc(C)c1-c1ccc2c(c1)C(=O)CC2	63100	< 4.6	–
Cc1noc(C)c1-c1ccc2c(c1)C(OCCCN1CCNCC1)CC2 (racemic)	3980	–	–
Cc1noc(C)c1-c1ccc2ncn(Cc3cccc(C(=O)N(C)C)c3)c2c1	631	5.2	–
Cc1noc(C)c1-c1ccc2ncn(Cc3ccc(Cl)c(Cl)c3)c2c1	3980	< 4	–
Cc1noc(C)c1-c1ccc2c(c1)C(OCCCN1CCOCC1)CC2 (racemic)	6310	–	–
Cc1noc(C)c1-c1ccc2ncn(Cc3cccc(Cl)c3)c2c1	1260	4.7	–
Cc1noc(C)c1-c1ccc2nc[nH]c2c1	6310	5.4	–
Cc1noc(C)c1-c1ccc2ncn(Cc3ccc(C(=O)N(C)C)cc3)c2c1	2000	5.2	–
Cc1noc(C)c1-c1ccc2c(c1)C(OCCCN1CCCCC1)CC2 (racemic)	6310	–	–
Cc1noc(C)c1-c1ccc2c(c1)ncn2Cc1ccc(Cl)c(Cl)c1	10000	5.9	–
Cc1noc(C)c1-c1ccc2c(c1)ncn2Cc1cccc(Br)c1	1580	5.6	–
COc1ccc(Cn2cnc3ccc(-c4c(C)noc4C)cc32)cc1	794	< 5	–
Cc1noc(C)c1-c1ccc2ncn(Cc3ccccc3C#N)c2c1	1000	5.9	–
Cc1noc(C)c1-c1ccc2ncn(Cc3cccc(F)c3)c2c1	631	4.9	–
Cc1noc(C)c1-c1ccc2c(c1)ncn2Cc1ccc(Cl)cc1	2510	5.7	–
Cc1noc(C)c1-c1ccc2c(c1)C(O)(c1ccccc1)CC2 (racemic)	1260	4.7	–
Cc1noc(C)c1-c1ccc2ncn(Cc3ccc(C#N)cc3)c2c1	200	< 4	ΔTm [3]: -0.1 °C; ΔTm [4]: -0.2 °C; Ratio IC50 [5]: 100; ΔTm [6]: -0.4 °C; ΔTm [7]: 1.1 °C; ΔTm [8]: -0.2 °C; ΔTm [9]: -0.1 °C; ΔTm [10]: 3.2 °C; IC50 ([1]; read-out: IC50): 180 nM; ΔTm [11]: 0 °C; ΔTm [12]: 0.1 °C
Cc1noc(C)c1-c1ccc2c(c1)C(OCc1ccc3ccccc3n1)CC2 (racemic)	20000	–	–
Cc1noc(C)c1-c1ccc2c(c1)ncn2Cc1ccccc1[N+](=O)[O-]	12600	4.8	–
Cc1noc(C)c1-c1ccc2cc[nH]c2c1	20000	< 5	–
COC(=O)c1ccc(Cn2cnc3ccc(-c4c(C)noc4C)cc32)cc1	1260	< 4	–
COc1ccc(Cn2c(C)nc3ccc(-c4c(C)noc4C)cc32)cc1	1580	4.6	–
Cc1noc(C)c1-c1ccc2c(c1)nc(C)n2Cc1ccc(O)cc1	2000	5.1	–
Cc1noc(C)c1-c1ccc2ncn(Cc3ccccc3[N+](=O)[O-])c2c1	631	< 4	–
Cc1noc(C)c1-c1ccc2c(c1)C(OCc1ccccc1)CC2 (racemic)	31600	–	–
Cc1noc(C)c1-c1ccc2ncn(Cc3cccc(Br)c3)c2c1	1000	< 5	–
